Reference: patent US20160272627A1, “POLYMORPHIC FORMS OF SUVOROXANT” (priority 2012, published 2016)

What was measured:
Assay type in all cases: physicochemical
[1] = Slurrying of Form A in solvents (Examples 26 to 38); conditions: slurrying in few solvents (Examples 26 to 38), 27° C., 17-24 hours
Method: Suvorexant Form-A (500 mg) and methanol (20 ml) were introduced in 100 ml round bottom flask. The heterogeneous mixture so obtained was stirred at 27° C. for 17 hours and the solid substance was then filtered under vacuum. The product was dried at 60° C. in air tray drier to obtain Form B.
The process of example 26 was repeated wherein methanol was replaced by following solvents to obtain Form B: […]

[2] = Slurry of Form B in water at about 80° C., solid analysed with XRD; conditions: water slurry at about 80° C. for about 1 hour, filtered at 80° C.
Method: (§1) All PXRD data reported herein are obtained using a Bruker AXS D8 Advance Powder X-ray Diffractometer or a PANalytical X-ray Diffractometer, using copper Kα radiation wavelength 1.5418 Å.
Suvorexant Form B (500 mg) and water (10 ml) were introduced in round bottom flask. The heterogeneous mixture so obtained was slurried with stirring at about 80° C. for about 1 hour and the solid substance was then filtered under vacuum at 80° C. The filtered solid was analyzed after 1 hour and 4 hours. The solid obtained after 1 hour and 4 hours were Form B up on analysis with XRD.

[3] = Slurry of Form B in water at about room temperature, solid analysed with XRD
Method: as §1
Suvorexant Form B (500 mg) and water (10 ml) were introduced in round bottom flask. The heterogeneous mixture so obtained was slurried with stirring at about room temperature for about 1 hour. The heterogeneous mixture was divided in to two parts. The first part was filtered under vacuum. The filtered solid was analyzed after 2 hour and 4 hours. The solid obtained after 2 hour and 4 hours were Form B up on analysis with XRD. The second part was stirred over night at room temperature and then filtered under vacuum. The solid obtained from second part was Form B up on analysis with XRD.

| SMILES | polymorphic form conversion up on slurrying [1] | polymorphic form of the solid up on analysis with XRD ([2]; filtered solid analyzed after 1 hour) | polymorphic form of the solid up on analysis with XRD ([2]; filtered solid analyzed after 4 hours) | polymorphic form of the solid up on analysis with XRD ([3]; water slurry at about room temperature for about 1 hour, first part filtered, filtered solid analyzed after 2 hour) | polymorphic form of the solid up on analysis with XRD ([3]; water slurry at about room temperature for about 1 hour, first part filtered, filtered solid analyzed after 4 hours) | polymorphic form of the solid up on analysis with XRD ([3]; water slurry, second part stirred over night at room temperature, then filtered) |
| --- | --- | --- | --- | --- | --- | --- |
| Cc1ccc(-n2nccn2)c(C(=O)N2CCN(c3nc4cc(Cl)ccc4o3)CC[C@H]2C)c1 [Form A, 5-chloro-2-{(5R)-5-methyl-4-[5-methyl-2-(2H-1,2,3-triazol-2-yl)benzoyl]-1,4-diazepan-1 yl}-1,3-benzoxazole] | converted in to Form B | – | – | – | – | – |
| Cc1ccc(-n2nccn2)c(C(=O)N2CCN(c3nc4cc(Cl)ccc4o3)CC[C@H]2C)c1 [Suvorexant Form B, 5-chloro-2-{(5R)-5-methyl-4-[5-methyl-2-(2H-1,2,3-triazol-2-yl)benzoyl]-1,4-diazepan-1 yl}-1,3-benzoxazole] | – | Form B | Form B | Form B | Form B | Form B |
